Patent US20100216827A1 (Metabolex, Inc., priority 2008, published 2010)
Read-outs that look alike come from different tables or passages of the source.

Target: T1, human GPR120 (Homo sapiens, UniProt Q5NUL3)
T1 construct: host or cells: HEK293 cells coexpressing Gqi5
T1 sequence (Q5NUL3 1-361): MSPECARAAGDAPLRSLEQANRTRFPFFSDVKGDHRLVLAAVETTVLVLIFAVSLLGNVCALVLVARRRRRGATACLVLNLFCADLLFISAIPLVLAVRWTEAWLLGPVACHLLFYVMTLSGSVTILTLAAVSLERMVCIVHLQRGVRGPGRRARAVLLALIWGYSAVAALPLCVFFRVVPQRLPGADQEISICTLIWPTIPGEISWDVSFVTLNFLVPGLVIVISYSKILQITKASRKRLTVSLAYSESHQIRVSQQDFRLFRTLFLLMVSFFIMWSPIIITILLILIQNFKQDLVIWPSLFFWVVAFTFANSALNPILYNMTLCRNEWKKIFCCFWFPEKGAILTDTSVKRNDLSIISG
Test: Intracellular Ca2+ (FLIPR Calcium 4, Flexstation) assay in human GPR120 stable HEK293 cell line coexpressing Gqi5
Type: cell-based
Details: for % Activity at 5 μM: 5 μM compound compared to the maximal activity of GW9508 at 6.7 μM (100%); for EC50: human GPR120 stably expressing cells, 8 concentrations 0.00001 to 20 μM
Description: Human GPR120 stable cell line was purchased from Multispan Inc (26219 Eden Landing Road, Hayward, Calif. 94545). This GPR120 cell line was generated in HEK293 cells coexpressing Gqi5. In this cell line, the Flag epitope tag (DYKDDDDK) was fused to the amino terminus of human GPR120 protein.
The concentration of intracellular Ca^2+ was measured as described below. Human GPR120 cells were plated in 96 well plates (Poly-D-Lysine coated black/clear Plate, Greiner Bio-One) at 70,000 cells per well and cultured overnight in conditions of 37° C. and 5% CO2. A Ca^2+ assay dye stock solution was prepared by adding 10 mL of assay buffer (HBSS/20 mM HEPES, pH 7.4) to FLIPR Calcium 4 Assay Bulk Kit (Molecular Devices). The 10 mL of Ca^2+ assay dye solution was prepared by further diluting 0.5 mL of Ca^2+ assay dye stock solution with 10 mL of assay buffer. The medium of the cells was removed and immediately 100 μl of the Ca^2+ assay dye solution was dispensed into each well followed by incubation at 37° C. and 5% CO2 for 50 minutes to incorporate the Ca^2+ dye into the cells. The cell plate was then placed in the Flexstation (Molecular Devices) for 20 minutes at 37° C. Compounds were dissolved in 100% DMSO and diluted to desired concentrations with assay buffer and placed in Flexstation simultaneously with the cell plate for 20 minute incubation at 37° C. prior to reading. Fluorescence intensity was measured immediately following compound addition (25 μl/well) on the Flexstation at an excitation wavelength of 485 nm and an emission wavelength of 525 with 515 nm auto cutoff. The resulting increase in fluorescence intensities corresponds to increases in intracellular Ca^2+ levels.
Compounds were dissolved in 100% DMSO to a concentration of 20 mM to provide stock solutions. To determine activity against human GPR120, compounds were added with human GPR120 stably expressing cells (described above), at 8 desired concentrations ranging from 0.00001 to 20 μM, in 96 well plates and fluorescence intensities were measured for 90 seconds with 2-second intervals. An EC50 value (concentration of the GPR120 agonist where 50% of the agonist's maximal activity is observed) was calculated using the changes (Max-Min) of fluorescent intensity.
To determine percent activity for a tested compound, the fluorescence intensity value obtained at a particular concentration were compared to the maximal fluorescence intensity value obtained for reference compound GW9508 (4-[[(3-phenoxyphenyl)methyl]amino]benzene propanoic acid; British Journal of Pharmacology 2006 148, 619-628) that acts as a full agonist of the GPR120 receptor. The maximal activity of GW9508 is designated as 100% activity. Typically, the GW9508 activity reached a maximum at a concentration of approximately 6.7 μM. Activities of compounds that were tested according to this method are shown in Table 1 below and are expressed as % activity at 5 μM compound compared to the maximal activity of GW9508 at 6.7 μM.

[1] = read-out: EC50 between >1 μM and ≦10 μM

SMILES | % Activity at 5 μM | EC50 [1] | EC50 (read-out: EC50 ≦ 1 μM) | EC50 (read-out: EC50 > 10 μM)
O=C(O)CCC(=O)c1ccc(OCc2snnc2-c2ccc(Cl)cc2)cc1 [Example 67, 4-(4-((4-(4-chlorophenyl)-1,2,3-thiadiazol-5-yl)methoxy)phenyl)-4-oxobutanoic acid] | 59% | 1 to 10 µM | – | –
Cc1cc(COc2c(F)cc(CCC(=O)O)cc2F)n(C(C)C)n1 [Example 25, 3-(3,5-difluoro-4-((1-isopropyl-3-methyl-1H-pyrazol-5-yl)methoxy)phenyl)propanoic acid] | 92% | 1 to 10 µM | – | –
Cc1onc(-c2ccccc2)c1COc1ccc2c(c1)CCC2CC(=O)O (stereo not shown) [Example 58, 2-(5-((5-methyl-3-phenylisoxazol-4-yl)methoxy)-2,3-dihydro-1H-inden-1-yl)acetic acid] | 66% | – | ≤ 1 µM | –
CCc1ccc(-n2nc(C)cc2COc2ccc(CC(C)C(=O)O)cc2F)cc1 (stereo not shown) [Example 90, 3-(4-((1-(4-ethylphenyl)-3-methyl-1H-pyrazol-5-yl)methoxy)-3-fluorophenyl)-2-methylpropanoic acid] | 99% | – | ≤ 1 µM | –
Cc1cc(COc2c(F)cc(CCC(=O)O)cc2F)n(C(C)(C)C)n1 [Example 41, 3-(4-((1-tert-butyl-3-methyl-1H-pyrazol-5-yl)methoxy)-3,5-difluorophenyl)propanoic acid] | 50% | – | ≤ 1 µM | –
CCCc1ccc(-n2nc(C)cc2COc2c(F)cc(CC(C)C(=O)O)cc2F)cc1 (stereo not shown) [Example 105, 3-(3,5-Difluoro-4-((3-methyl-1-(4-propylphenyl)-1H-pyrazol-5-yl)methoxy)phenyl)-2-methylpropanoic acid] | 99% | – | ≤ 1 µM | –
Cc1cc(COc2c(F)cc(CC(C)C(=O)O)cc2F)n(-c2ccc(Br)cc2)n1 (stereo not shown) [Example 97, 3-(4-((1-(4-bromophenyl)-3-methyl-1H-pyrazol-5-yl)methoxy)-3,5-difluorophenyl)-2-methylpropanoic acid] | 109% | – | ≤ 1 µM | –
Cc1cc(COc2c(F)cc(CC(C)C(=O)O)cc2F)n(-c2ncc(Cl)cn2)n1 (stereo not shown) [Example 110, 3-(4-((1-(5-Chloropyrimidin-2-yl)-3-methyl-1H-pyrazol-5-yl)methoxy)-3,5-difluorophenyl)-2-methylpropanoic acid] | 19% | – | – | > 10 µM
COc1cc(OCc2cc(C)nn2-c2ccc(Cl)cc2)ccc1CC(C)C(=O)O (stereo not shown) [Example 103, 3-(4-((1-(4-Chlorophenyl)-3-methyl-1H-pyrazol-5-yl)methoxy)-2-methoxyphenyl)-2-methylpropanoic acid] | 78% | 1 to 10 µM | – | –
Cc1cc(COc2c(F)cc(CC(F)C(=O)O)cc2F)n(-c2ccc(Cl)cc2)n1 (stereo not shown) [Example 54, 3-(4-((1-(4-chlorophenyl)-3-methyl-1H-pyrazol-5-yl)methoxy)-3,5-difluorophenyl)-2-fluoropropanoic acid] | 48% | – | ≤ 1 µM | –
Cc1onc(-c2ccccc2)c1COc1ccc2c(c1)CCC(CC(=O)O)C2 (stereo not shown) [Example 40, 2-(6-((5-methyl-3-phenylisoxazol-4-yl)methoxy)-1,2,3,4-tetrahydronaphthalen-2-yl)acetic acid] | 100% | – | ≤ 1 µM | –
Cc1cc(COc2c(F)cc(COCC(=O)O)cc2F)n(-c2ccc(Cl)cc2)n1 [Example 35, 2-(4-((1-(4-chlorophenyl)-3-methyl-1H-pyrazol-5-yl)methoxy)-3,5-difluorobenzyloxy)acetic acid] | 86% | – | ≤ 1 µM | –
Cc1cc(COc2ccc(CC(C)C(=O)O)cc2F)n(-c2ccc(Cl)cc2)n1 (stereo not shown) [Example 108, 3-(4-((1-(4-Chlorophenyl)-3-methyl-1H-pyrazol-5-yl)methoxy)-3-fluorophenyl)-2-methylpropanoic acid] | 106% | – | ≤ 1 µM | –

Other lines, results leading:

% Activity at 5 μM | EC50 [1] | EC50 (read-out: EC50 ≦ 1 μM) | EC50 (read-out: EC50 > 10 μM) | SMILES
72% | – | ≤ 1 µM | – | O=C(O)CCc1cc(F)c(OCc2snnc2-c2ccc(F)c(F)c2)c(F)c1 [Example 73, 3-(4-((4-(3,4-difluorophenyl)-1,2,3-thiadiazol-5-yl)methoxy)-3,5-difluorophenyl)propanoic acid]
85% | – | ≤ 1 µM | – | O=C(O)CCc1cc(F)c(OCc2snnc2-c2cccc(Cl)c2)c(F)c1 [Example 32, 3-(4-((4-(3-chlorophenyl)-1,2,3-thiadiazol-5-yl)methoxy)-3,5-difluorophenyl)propanoic acid]
80% | 1 to 10 µM | – | – | Cc1nc(-c2ccccc2)c(COc2c(F)cc(CCC(=O)O)cc2F)s1 [Example 30]
70% | 1 to 10 µM | – | – | Cc1cc(COc2c(F)cc(CCC(=O)O)cc2F)c(-c2ccccc2)o1 [Example 12, 3-(3,5-difluoro-4-((5-methyl-2-phenylfuran-3-yl)methoxy)phenyl)propanoic acid]
78% | 1 to 10 µM | – | – | Cc1onc(-c2ccc(F)cc2)c1COc1c(F)cc(C2CC2C(=O)O)cc1F (stereo not shown) [Example 17, 2-(3,5-difluoro-4-((3-(4-fluorophenyl)-5-methylisoxazol-4-yl)methoxy)phenyl)cyclopropanecarboxylic acid]
60% | – | ≤ 1 µM | – | O=C(O)CCc1cc(F)c(OCc2ncoc2-c2ccccc2)c(F)c1 [Example 10, 3-(3,5-difluoro-4-((5-phenyloxazol-4-yl)methoxy)phenyl)propanoic acid]
88% | – | ≤ 1 µM | – | O=C(O)CCc1cc(F)c(OCc2snnc2-c2ccc(Cl)cc2)c(F)c1 [Example 62, 3-(4-((4-(4-chlorophenyl)-1,2,3-thiadiazol-5-yl)methoxy)-3,5-difluorophenyl)propanoic acid]
92% | – | ≤ 1 µM | – | Cc1onc(-c2ccc(Cl)cc2)c1COc1c(F)cc(CCC(=O)O)cc1F [Example 24, 3-(4-((3-(4-chlorophenyl)-5-methylisoxazol-4-yl)methoxy)-3,5-difluorophenyl)propanoic acid]
79% | – | ≤ 1 µM | – | CC(C)c1cc(COc2c(F)cc(CCC(=O)O)cc2F)n(-c2ccccc2)n1 [Example 1, 3-(3,5-difluoro-4-((3-isopropyl-1-phenyl-1H-pyrazol-5-yl)methoxy)phenyl)propanoic acid]
97% | – | ≤ 1 µM | – | COc1ccc(-c2noc(C)c2COc2c(F)cc(CCC(=O)O)cc2F)cc1 [Example 21, 3-(3,5-difluoro-4-((3-(4-methoxyphenyl)-5-methylisoxazol-4-yl)methoxy)phenyl)propanoic acid]
80% | – | ≤ 1 µM | – | Cc1nc(-c2ccccc2)c(COc2c(F)cc(C3CC3C(=O)O)cc2F)s1 (stereo not shown) [Example 33, 2-(3,5-difluoro-4-((2-methyl-4-phenylthiazol-5-yl)methoxy)phenyl)cyclopropane carboxylic acid]
66% | – | ≤ 1 µM | – | Cc1onc(-c2ccccc2)c1COc1c(F)cc(CCC(=O)O)cc1F [Example 14, 3-(3,5-difluoro-4-((5-methyl-3-phenylisoxazol-4-yl)methoxy)phenyl)propanoic acid]
73% | – | ≤ 1 µM | – | O=C(O)CCc1cc(F)c(OCc2ccnn2-c2ccccc2)c(F)c1 [Example 48, 3-(3,5-difluoro-4-((1-phenyl-1H-pyrazol-5-yl)methoxy)phenyl)propanoic acid]
